According to PubChem BioAssay (NCI):
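Cultured in 96-well plates, cells were exposed to test compound for 48 hours across five concentrations. Here, GI50 denotes the concentration required for 50% inhibition of growth. The concentration for full growth arrest is given as TGI.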

Experiments:
Assay in all cases: DTP human tumour cell line panel, 48 h
[1] = system: KM12 colon
[2] = system: SK-MEL-5 melanoma
[3] = system: UO-31 renal
[4] = system: MOLT-4 leukemia
[5] = system: T-47D breast
[6] = system: SNB-19 CNS
[7] = system: NCI-H226 lung
[8] = system: HOP-62 NSCLC
[9] = system: HCT-15 colon
[10] = system: A549 NSCLC

In the case of CN1CCN(Cc2ccc(NC(=O)c3cncc(C#Cc4cnn5ccccc45)c3)cc2C(F)(F)F)CC1, the GI50 [1] is reported as 0.016 µM, the TGI [1] is reported as 1.14 µM and the GI50 [2] is reported as 0.902 µM. The TGI [2] was 1.72 µM, the GI50 [3] was 1.17 µM and the TGI [3] was 3.39 µM. For the same compound, the GI50 [4] was 0.358 µM, the TGI [4] was 3.56 µM and the GI50 [5] was 1.4 µM. It also gave a TGI [5] of 5.78 µM, a GI50 [6] of 1.58 µM and a TGI [6] of 5.03 µM. The GI50 [7] was 0.592 µM, the TGI [7] was 3.43 µM and the GI50 [8] was 0.939 µM. It also gave a TGI [8] of 2.93 µM, a GI50 [9] of 0.818 µM and a TGI [9] of 3.66 µM. The GI50 [10] was 0.723 µM and the TGI [10] was 3.56 µM.

In the case of CC1CC(C)C2=NOS3=C2C1=NO3 (centres undefined), the TGI [1] is reported as > 100 µM, the TGI [2] is reported as > 100 µM and the TGI [3] is reported as > 100 µM. The TGI [4] was > 100 µM, the TGI [5] was > 100 µM and the TGI [6] was > 100 µM. The TGI [7] was > 100 µM, the TGI [8] was > 100 µM and the TGI [9] was > 100 µM. For the same compound, the TGI [10] was > 100 µM.

O=C(NN1C(=O)CSC12CCCC2)C(O)c1ccccc1 (centres undefined) was tested, and the GI50 [1] was > 100 µM, the TGI [1] was > 100 µM and the GI50 [2] was > 100 µM. The TGI [2] was > 100 µM, the GI50 [3] was > 100 µM and the TGI [3] was > 100 µM. For the same compound, the GI50 [4] was > 100 µM, the TGI [4] was > 100 µM and the GI50 [5] was > 100 µM. The TGI [5] was > 100 µM, the GI50 [6] was > 100 µM and the TGI [6] was > 100 µM. For the same compound, the GI50 [7] was > 100 µM, the TGI [7] was > 100 µM and the GI50 [8] was > 100 µM. The TGI [8] was > 100 µM, the GI50 [9] was > 100 µM and the TGI [9] was > 100 µM. For the same compound, the GI50 [10] was > 100 µM and the TGI [10] was > 100 µM.

With COc1cc2ncn(-c3cc(OCc4ccccc4C(F)(F)F)c(C(C)=O)s3)c2cc1OC the GI50 [1] was > 25 µM, the TGI [1] was > 25 µM and the GI50 [2] was > 25 µM. For the same compound, the TGI [2] was > 25 µM, the GI50 [3] was > 25 µM and the TGI [3] was > 25 µM. The GI50 [4] was > 25 µM, the TGI [4] was > 25 µM and the GI50 [5] was > 25 µM. The TGI [5] was > 25 µM, the GI50 [6] was > 25 µM and the TGI [6] was > 25 µM. The GI50 [7] was > 25 µM, the TGI [7] was > 25 µM and the GI50 [8] was > 25 µM. The TGI [8] was > 25 µM, the GI50 [9] was > 25 µM and the TGI [9] was > 25 µM. The GI50 [10] was > 25 µM and the TGI [10] was > 25 µM.

Compound CSc1ccc(C2=NN(C(C)=O)C(c3ccc(F)cc3)C2)cc1 (centres undefined) has a GI50 [1] of 12.8 µM, a TGI [1] of 36.5 µM and a GI50 [2] of 12.9 µM. It also gave a TGI [2] of 26.4 µM, a GI50 [3] of 14.2 µM and a TGI [3] of 29.8 µM. The GI50 [4] was 2.36 µM, the TGI [4] was 9.69 µM and the GI50 [5] was 11.5 µM. It also gave a TGI [5] of 41.4 µM, a GI50 [6] of 8.19 µM and a TGI [6] of 37 µM. The GI50 [7] was 13.7 µM, the TGI [7] was 31.5 µM and the GI50 [8] was 16.6 µM. The TGI [8] was 31.1 µM, the GI50 [9] was 19.9 µM and the TGI [9] was > 100 µM. It also gave a GI50 [10] of 12.1 µM and a TGI [10] of 30.9 µM.

For O=C(Nc1ccc2c(c1)OCO2)C(=O)c1c[nH]c2cc(F)ccc12, the GI50 [1] was 0.389 µM, the TGI [1] was 13.7 µM and the GI50 [2] was 0.726 µM. The TGI [2] was 10.6 µM, the GI50 [3] was 4.42 µM and the TGI [3] was 44.9 µM. It also gave a GI50 [4] of 11.7 µM, a TGI [4] of 69.2 µM and a GI50 [5] of 1.75 µM. The TGI [5] was > 100 µM, the GI50 [6] was 7.74 µM and the TGI [6] was 77.3 µM. For the same compound, the GI50 [7] was 3.74 µM, the TGI [7] was 16.8 µM and the GI50 [8] was 5.11 µM. The TGI [8] was 21.9 µM, the GI50 [9] was 0.67 µM and the TGI [9] was > 100 µM. The GI50 [10] was 2.81 µM and the TGI [10] was > 100 µM.

With CC(C)(C)c1ccc(O)c(CN(Cc2cc(C(C)(C)C)ccc2O)C2CCCCC2)c1 the TGI [1] was 41.2 µM, the TGI [2] was 28.4 µM and the TGI [3] was 99.9 µM. For the same compound, the TGI [4] was 49.8 µM, the TGI [5] was 45 µM and the TGI [6] was 41 µM. The GI50 [7] was 28.5 µM, the TGI [7] was > 100 µM and the TGI [8] was 46.5 µM. For the same compound, the TGI [9] was 36.2 µM and the TGI [10] was > 56.7 µM.

Work on COc1ccc(/C=C2\CC(C)CC3C2=NN(c2ccccc2)C3c2ccc(OC)c(OC)c2)cc1OC (centres undefined) yielded a GI50 [2] of 2.41 µM, a TGI [2] of 6.94 µM and a GI50 [3] of 5.75 µM. The TGI [3] was > 100 µM, the GI50 [4] was 2.69 µM and the TGI [4] was 92.4 µM. For the same compound, the GI50 [5] was 4.48 µM, the TGI [5] was > 100 µM and the GI50 [6] was 7.39 µM. For the same compound, the TGI [6] was > 100 µM, the GI50 [7] was 3.09 µM and the TGI [7] was 9.75 µM. For the same compound, the GI50 [8] was 4.87 µM, the TGI [8] was 17 µM and the GI50 [9] was 1.98 µM. For the same compound, the TGI [9] was 4.38 µM, the GI50 [10] was 5.72 µM and the TGI [10] was > 100 µM.

In the case of CC[C@]12C=CCN3CC[C@@]4(c5ccc(OC)cc5N(C)[C@H]4[C@@](O)(C(=O)OC)[C@@H]1OC(=O)CCC(=O)N[C@H](Cc1c[nH]c4ccccc14)C(=O)OC)[C@@H]32, the GI50 [1] is reported as 10.1 µM, the TGI [1] is reported as 36 µM and the GI50 [2] is reported as 2.54 µM. For the same compound, the TGI [2] was 7.14 µM, the GI50 [3] was 2.97 µM and the TGI [3] was 13.7 µM. For the same compound, the GI50 [4] was 3.25 µM, the TGI [4] was > 100 µM and the GI50 [5] was 11 µM. It also gave a TGI [5] of 30.3 µM, a GI50 [6] of 4.74 µM and a TGI [6] of 48.8 µM. It also gave a GI50 [7] of 5.39 µM, a TGI [7] of 27.5 µM and a GI50 [8] of 6.32 µM. It also gave a TGI [8] of 24.5 µM, a GI50 [9] of 3.51 µM and a TGI [9] of 16.7 µM. It also gave a GI50 [10] of 5.36 µM and a TGI [10] of 22.1 µM.

Compound CC[C@@H](C)Nc1cc(C(=O)NC2CC3CCC(C2)N3c2ccc(C(=O)C3CC3)cn2)c(C)cc1C(N)=O (some centres undefined) has a GI50 [1] of 0.0239 µM, a TGI [1] of 0.0884 µM and a GI50 [2] of 0.0599 µM. For the same compound, the TGI [2] was 8.35 µM, the GI50 [3] was 0.0479 µM and the TGI [3] was > 100 µM. For the same compound, the GI50 [4] was 0.0374 µM, the TGI [4] was 31 µM and the GI50 [5] was 0.0378 µM. The TGI [5] was 36 µM, the GI50 [6] was 0.0604 µM and the TGI [6] was > 100 µM. It also gave a GI50 [7] of 0.0568 µM, a TGI [7] of 51.1 µM and a GI50 [8] of 0.0598 µM. The TGI [8] was > 100 µM, the GI50 [9] was 0.0317 µM and the TGI [9] was > 100 µM. For the same compound, the GI50 [10] was 0.0343 µM and the TGI [10] was > 100 µM.

For CN(O)C(=S)c1ccccc1, the TGI [1] was 31.8 µM, the TGI [2] was 16.3 µM and the TGI [3] was 21.6 µM. The TGI [4] was 5.11 µM, the TGI [5] was > 100 µM and the TGI [6] was > 100 µM. For the same compound, the TGI [7] was > 100 µM, the TGI [8] was > 90.8 µM and the TGI [9] was 37.6 µM. For the same compound, the TGI [10] was > 100 µM.

Cc1cc(NNC(=O)c2ccccc2O)nc(Nc2nc3ccccc3o2)n1 was tested, and the GI50 [1] was 1.01 µM, the TGI [1] was 35.2 µM and the GI50 [2] was 1.11 µM. For the same compound, the TGI [2] was 6.72 µM, the GI50 [3] was 0.622 µM and the TGI [3] was 1.91 µM. It also gave a GI50 [4] of 1.31 µM, a TGI [4] of 7.88 µM and a GI50 [5] of 2.92 µM. It also gave a TGI [5] of 21.5 µM, a GI50 [6] of 1.86 µM and a TGI [6] of 21.3 µM. For the same compound, the GI50 [7] was 1.66 µM, the TGI [7] was 8.47 µM and the GI50 [8] was 0.865 µM. For the same compound, the TGI [8] was 13.5 µM, the GI50 [9] was 1.17 µM and the TGI [9] was > 39.5 µM. It also gave a GI50 [10] of 1.13 µM and a TGI [10] of 10.3 µM.

In the case of Cc1cn2c(/C=C3/C(=O)Nc4ccc(F)cc43)c(C)nc2s1, the GI50 [1] is reported as 2.34 µM, the TGI [1] is reported as > 50 µM and the GI50 [2] is reported as 2.31 µM. For the same compound, the TGI [2] was 9.61 µM, the GI50 [3] was 6.62 µM and the TGI [3] was 40.8 µM. It also gave a GI50 [4] of 5.02 µM, a TGI [4] of 33.2 µM and a GI50 [5] of 10.2 µM. For the same compound, the TGI [5] was > 50 µM, the GI50 [6] was 5.56 µM and the TGI [6] was > 50 µM. For the same compound, the GI50 [7] was 17.1 µM, the TGI [7] was > 50 µM and the GI50 [8] was 8.81 µM. For the same compound, the TGI [8] was > 50 µM, the GI50 [9] was 2.73 µM and the TGI [9] was > 50 µM. The GI50 [10] was 6.37 µM and the TGI [10] was > 50 µM.
